Laboratory results taken from patent US5410068A, “Succinimidyl trityl compounds and a process for preparing same” (PerSeptive Biosystems, Inc., priority 1989, dated 1995).
{Biotin} = biotin attached to 5'-amino group

Test system: streptavidin agarose
Test: binding of biotin labeled oligonucleotides and amplified DNA to streptavidin agarose support
Conditions: purified oligonucleotide
Procedure: The major component of each sample was isolated by the method described in Example 12.
Aliquots of the reaction mixture taken at 5 minutes, 55 minutes and 120 minutes were analyzed by reversed-phase HPLC. The analysis indicated complete disappearance of the major component of the crude mixture in favor of a more hydrophobic product within two hours.
Streptavidin agarose (Gibco BRL, Bethesda Md.) was treated before use. The agarose was washed three times with 200 μl of 150 mM NaCl, 10 mM NaH2 PO4 pH 7.2 containing 0.05% NaN3 and 10% acetonitrile. A 25 μl aliquot of 0.5M NaCl in 80% aqueous acetic acid containing 0.5% (w/v) aminoethanethiol hydrochloride was then washed through the resin and then 100 μl of this solution was allowed to react with the streptavidin agarose for 1 hr. The resin was again washed three times with 100 μl of 150 mM NaCl, 10 mM NaH2 PO4 pH 7.2 containing .05% NaN3 and 10% acetonitrile.
Following amplication, a portion of each PCR reaction (50 μl) was incubated with pretreated (see Example 16) streptavidin agarose (100 μl) for 30 minutes. At the end of the incubation, the supernatant was removed and the streptavidin agarose was washed twice with 100 μl of 150 mM NaCl, 10 mM NaH2 PO4 pH 7.2 containing 0.05% NaN3 and 10% acetonitrile (hereafter called streptavidin buffer).The washings were combined with the supernatant. […]

new product: biotinylated 5'-amino group containing partially protected 15-mer 5'-TCCCAGTCACGACGT-3' (treated with 1,6-diaminohexane) (DNA, 5' {Biotin}, backbone and methylation of C not given here; biotin via aminohexyl, partially protected)
binding to streptavidin agarose: shown to bind to streptavidin agarose
